Test [1] has as its system MHC class I molecules of T1 cells (human lymphoma cell line 174×CEM.). The test is described as follows: Effect on expression of MHC class I from T1 cells (flow cytometry, MFI). In kind it is cell-based. As to conditions: 3 days culture. The procedure, abridged:
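EC20 is the compound level that lowers MHC class I MFI by 20% relative to compound-free cultures. Read-out was flow cytometry after FITC W6/32 staining.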
(A flow cytometer gives signals particle by particle.)

The subject of the next test is mouse splenic cells. The test is described as follows: Inhibitory action on blastogenesis of mouse splenic cells ([3H]-thymidine incorporation). Particulars: 72 hours. In kind it is cell-based. How it is done:
Inhibitory Action on Blastogenesis of Mouse Splenic Cells
The spleen was excised from each of BALB/c mice (Charles River Japan; female; 10-week-old), and it was allowed to pass through a mesh to obtain a single cell suspension. This single cell suspension was prepared to be 1.0×10^6 cells/ml. Thereafter, 200 μl of the suspension was fractionated into each well of a 96-well plate. Thereafter, as blastogenic stimulation, 5 μg/ml concanavalin A (Pharmacia) or 25 μg/ml Escherichia coli-derived lipopolysaccharide (DIFCO) was added to the well, and then, a solution containing a test compound with each different concentration was further added thereto at an amount of 20 μl/well. The obtained mixture was cultured at 37° C. for 72 hours in an incubator containing 5% carbon dioxide. Thereafter, a 1 μCi/10 μl/well [^3H]-thymidine solution was added thereto 64 hours after initiation of the culture. After completion of the culture (72 hours later), the cells were captured on a filter using a cell harvester, and they were then dried. Thereafter, scintillator was added thereto, and the radioactivity of [^3H]-thymidine incorporated into the cells was then measured using a liquid scintillation counter. The inhibition rate of the DNA synthesis was calculated using the aforementioned formula (3). Thereafter, the concentration of a test compound necessary for inhibition of 50% (IC50 value) was obtained.

In test [2] the test system is (C57BL/6XB6. C—H2^bml) F1 mice. Nature of the test: Life-lengthening effect on graft versus host disease (GVHD). In kind it is in vivo, mouse. As to conditions: oral, once a day. As for the experimental part:
Life-Lengthening Effect on Graft Versus Host Disease (GVHD)
The present test was carried out by modification of the method of Jonathan et al. (Jonathan et al., Blood, p. 93 (1999)). First, 6.0 Gy X-ray was applied to (C57BL/6XB6. C—H2^bml) F1 mice (produced by mating 6XB6.C—H2^bml mice (Jackson Laboratory) with C57BL/6 mice (Charles River Japan); female; 8 to 12-week-old). Thereafter, CD8 positive T cells (1.25×10^6 cells) prepared from the splenic cells of C57BL/6 mice (Charles River Japan; female; 8-week-old) were intravenously injected into the above (C57BL/6XB6. C—H2^bml) F1 mice. From the day before the injection, the test compound having each diluted concentration or 0.5% carboxymethyl cellulose used as a solvent was orally administered to the mice once a day for 7 to 30 consecutive days. The day on which the transplantation was conducted was defined as day 0. Based on the median of the survival days of each group, the prolongation rate of such survival dates was calculated using the following formula (7). Thus, the effect of the test compound on GVHD was analyzed.
[formula] • Eexp: Median of survival days of test compound administration group • Cexp: Median of survival days of solvent administration group

Test [3] deals with human dendritic cells cultured with human allogenic T cells. The test is described as follows: Effect on the ability of human dendritic cells to induce the growth of allogenic T cells ([3H]-thymidine incorporation). In kind it is cell-based. Particulars: dendritic cells treated 3 days with test compound and TNF-α, then 5 days with allogenic T cells, read-out: IC50 (inhibition of DNA synthesis of lymphocytes). As for the experimental part:
Effect on the Ability of Human Dendritic Cells to Induce the Growth of Allogenic T Cells
Immature dendritic cells were cultured with a test compound and TNF-α for 3 days by the same method as that described in Test Example 2. The obtained dendritic cells (2.5×10^3 cells/50 μl/well) were cultured together with human allogenic T cells (2.0×10^5 cells/150 μl/well) in a 96-well flat bottom plate at 37° C. for 5 days in an incubator containing 5% carbon dioxide. Thereafter, [^3H]-thymidine (Amersham Pharmacia Biotech) was added thereto at an amount of 1 μCi/10 μl/well, 16 hours before completion of the culture. After completion of the culture, cells were captured on a glass filter using a cell harvester (Skatron Instrument) and then dried. Thereafter, Scintillator ACS-II (Amersham Pharmacia Biotech) was added thereto, and the radioactivity of [^3H]-thymidine incorporated into the cells were then measured using a liquid scintillation counter. The inhibition rate of the DNA synthesis of lymphocytes was calculated using the following formula (3). Thereafter, the concentration of a test compound necessary for inhibition of 50% (IC50 value) was obtained.
[formula] • Eexp: The amount of [^3H]-thymidine incorporated into cultured cells containing test compound • Cexp: The amount of [^3H]-thymidine incorporated into cultured cells containing no test compounds
(In general: Incorporation of labelled thymidine or its analogues reports DNA synthesis.)

The subject of test [4] is MHC class I molecules of human peripheral blood-derived dendritic cells. The test is described as follows: Effect on expression of MHC class I molecules from human peripheral blood-derived dendritic cells. In kind it is cell-based. Particulars: dendritic cells matured with TNF-α, 3 days; read-out: EC50 (reduction of 50% of the number of cells wherein MHC class I molecules were highly expressed). The text has this: Effect on Expression of MHC Class I Molecules from Human Peripheral Blood-Derived Dendritic Cells
Monocytes were isolated from human peripheral blood by the specific gravity centrifugation method. Thereafter, using mouse anti-human CD14 antibody-binding microbeads and a magnetic cell separation system (Miltenyi Biotec), CD14 positive cells were separated from the peripheral blood monocytes. The separated CD14 positive cells were suspended in an RPMI 1640 medium containing 10% FBS, and the suspension was then inoculated in a 6-well plate, resulting in a concentration of 1.0×10^6 cells/well. It was cultured at 37° C. for 20 minutes in an incubator containing 5% carbon dioxide. […] Thereafter, RPMI 1640 containing a 500 U/ml human recombinant […] (hereinafter referred to as GM-CSF; Anapure Bioscientific), 50 ng/ml human recombinant interleukin 4 (hereinafter referred to as IL-4; Pepro Tech), and 10% FBS, was added to the remaining suspension at a concentration of 2 ml/well. The obtained mixture was then cultured at 37° C. in an incubator containing 5% carbon dioxide. When adhesive CD14 positive cells are cultured in the presence of GM-CSF and IL-4, the CD14 positive cells were differentiated into non-adhesive immature dendritic cells. After the cells had been cultured for 7 days, non-adhesive cells were recovered to obtain immature dendritic cells. Using a 6-well plate, the immature dendritic cells (2.5×10^5 cells/well) were cultured in RPMI 1640 containing a 100 U/ml human recombinant tumor necrosis factor-α (hereinafter referred to as TNF-a; Pepro Tech), a test compound, and 10% FBS, at 37° C. for 3 days in an incubator containing 5% carbon dioxide. The dendritic cells became mature as a result of the presence of TNF-α, but in the present test, a test compound was allowed to simultaneously act on the cells. The mature dendritic cells were then stained with fluoroisothiocyanate-labeled mouse anti-human MHC class I monoclonal antibody (an antibody generated from the cell line W6/32 (ATCC No. CRL 1991)). The rate of the number of cells wherein MHC class I molecules were highly expressed to the total number of cells was measured by flow cytometry. The reduction rate of the number of cells wherein MHC class I molecules were highly expressed was calculated using the following formula (2), and the concentrations of test compounds necessary for reduction of 50% (EC50 values) were obtained.
[formula] • Eexp: (The number of cells, wherein MHC class I molecules are highly expressed, in cultured cells containing test compound)/(the total number of cells) • Cexp: (The number of cells, wherein MHC class I molecules are highly expressed, in cultured cells containing no test compounds)/(the total number of cells)

The mark [5] stands for this setting: 5 μg/ml concanavalin A, read-out: Lymphocyte blastogenesis IC50 (μM), ConA stimulation.
The mark [6] stands for this setting: 25 μg/ml Escherichia coli-derived lipopolysaccharide, read-out: Lymphocyte blastogenesis IC50 (μM), LPS stimulation.
The mark [7] stands for this setting: Mus musculus, Lymphocyte, 5 μg/ml concanavalin A, read-out: Lymphocyte blastogenesis IC50 (μM), ConA stimulation.
[8] abbreviates: Mus musculus, Lymphocyte, 25 μg/ml Escherichia coli-derived lipopolysaccharide, read-out: Lymphocyte blastogenesis IC50 (μM), LPS stimulation.
Where [9] appears, read: 100 mg/kg/single administration.

Structures are written as SMILES. Read-outs that look alike come from different tables or passages of the source.

As to `CC(C)NC(=O)Nc1nc2nccc(-c3cccc(OCCC4OCCCO4)c3)n2n1` [Example 183], in test [1], the “EC20 (concentration necessary for suppressing 20% of the expression level of MHC class I molecules)” value is 220 nM. The IC50 (commonly the concentration needed to halve the response being measured) came to 0.55 µM in the test on mouse splenic cells (setting [5]) and 0.14 µM with mouse splenic cells (setting [6]).

As for `COc1ccc(-c2ccnc3nc(NC(=O)N[C@@H](C)CCCC(C)(C)O)nn23)cc1` [Example 319, (S)-1-(5-hydroxy-1,5-dimethylhexyl)-3-[7-(4-methoxyphenyl)-[1,2,4]triazolo[1,5-a]pyrimidin-2-yl]urea], the “EC20 (concentration necessary for suppressing 20% of the expression level of MHC class I molecules)” value in test [1] was found to be 20 nM. Also, the “Lengthening rate of survival days (%)” value in test [2] (10 mg/kg/single administration) and in test [2] (50 mg/kg/single administration) was 200% throughout.

As for `CC(C)NC(=O)Nc1nc2nccc(-c3cccc(OCC4CCCO4)c3)n2n1` (stereo not drawn) [Example 184], in test [1], the “EC20 (concentration necessary for suppressing 20% of the expression level of MHC class I molecules)” value turned out to be 210 nM. In addition, the half-maximal inhibitory concentration (IC50) was 0.63 µM in the test with mouse splenic cells (setting [5]) and 0.29 µM in the test on mouse splenic cells (setting [6]).

Take `COc1ccc(-c2ccnc3nc(NC(=O)NC(C)CCCC(C)(C)O)nn23)cc1` (racemic) [Example 219]: the “EC20 (concentration necessary for suppressing 20% of the expression level of MHC class I molecules)” value in test [1] was 50 nM. For the same compound, the “Lengthening rate of survival days (%)” value in test [2] (25 mg/kg/single administration) came to 200%.

For the compound `COc1ccc(-c2ccnc3nc(NC(=O)N[C@@H](C)CCCC(C)C)nn23)cc1` [Example 160], the “EC20 (concentration necessary for suppressing 20% of the expression level of MHC class I molecules)” value in test [1] turned out to be 14 nM. For the same compound, the 50% inhibitory concentration (IC50) was found to be 156 nM in test [3], 0.07 µM in the test on mouse splenic cells (setting [5]) and 0.04 µM with mouse splenic cells (setting [6]).

As to `COc1ccc(-c2ccnc3nc(NC(=O)NC(C)CCC(C)(C)O)nn23)cc1` (racemic) [Example 317, (±)-1-(4-hydroxy-1,4-dimethylpentyl)-3-[7-(4-methoxyphenyl)-[1,2,4]triazolo[1,5-a]pyrimidin-2-yl]urea], in test [1], the “EC20 (concentration necessary for suppressing 20% of the expression level of MHC class I molecules)” value came out at 60 nM. The “Lengthening rate of survival days (%)” value in test [2] (30 mg/kg/single administration) is reported as 24%.

With `COc1ccc(-c2ccnc3nc(NC(=O)N[C@@H](C)c4ccccc4)nn23)cc1` [Example 101], the “EC20 (concentration necessary for suppressing 20% of the expression level of MHC class I molecules)” value in test [1] is 210 nM. For the same compound, the EC50 (as a rule, the concentration giving half of the maximal effect) in test [4] amounted to 220 nM. In addition, the results for the IC50 (in test [3] (Homo sapiens); with mouse splenic cells (setting [7]); with mouse splenic cells (setting [8])) were 625 nM, 0.58 µM and 0.18 µM, respectively.

Regarding `COc1ccc(-c2ccnc3nc(NC(=O)NC(C(=O)OC(C)(C)C)C(C)C)nn23)cc1` (stereo not drawn) [Example 045], the “EC20 (concentration necessary for suppressing 20% of the expression level of MHC class I molecules)” value in test [1] amounted to 30 nM. In addition, the EC50 in test [4] was determined as 120 nM. Besides, the 50% inhibitory concentration (IC50) was determined as 280 nM in test [3] (Homo sapiens), 0.41 µM with mouse splenic cells (setting [7]) and 0.09 µM in the test with mouse splenic cells (setting [8]).

As for `COc1cccc([C@H](C)NC(=O)Nc2nc3nccc(-c4ccc5c(c4)OCO5)n3n2)c1` [Example 300, (S)-1-[1-(3-methoxyphenyl)ethyl]-3-[7-(3,4-methylenedioxyphenyl)-[1,2,4]triazolo[1,5-a]pyrimidin-2-yl]urea], the “EC20 (concentration necessary for suppressing 20% of the expression level of MHC class I molecules)” value in test [1] stood at 19 nM. In addition, the “Lengthening rate of survival days (%)” value in test [2] (10 mg/kg/single administration) is on record as 100%.

As for `CCOCCC(C)NC(=O)Nc1nc2nccc(-c3ccc(OC)cc3)n2n1` (stereo not drawn) [Example 274], in test [1], the “EC20 (concentration necessary for suppressing 20% of the expression level of MHC class I molecules)” value amounted to 110 nM. Besides, the “Lengthening rate of survival days (%)” value in test [2] (setting [9]) is 55%.

Regarding `COc1ccc(-c2ccnc3nc(NC(=O)N[C@@H](C)c4cccc(OC)c4)nn23)cc1` [Example 132], the “EC20 (concentration necessary for suppressing 20% of the expression level of MHC class I molecules)” value in test [1] was determined as 39 nM. In addition, the half-inhibitory concentration (IC50) amounted to 625 nM in test [3], 0.08 µM in the test on mouse splenic cells (setting [5]) and 0.06 µM in the test on mouse splenic cells (setting [6]). The “Lengthening rate of survival days (%)” value in test [2] (setting [9]) amounted to 200%.

Values taken from US7598244B2, “[1,2,4]triazolo[1,5,a]pyrimidin-2-ylurea derivative and use thereof” (Nippon Kayaku Kabushiki Kaisha, priority 2003, dated 2009).
